# Results published in patent US20260234163A1, “NOVEL COMPOUNDS AND USES THEREOF” (ACELINK THERAPEUTICS, INC., priority 2023, published 2026).
# Target: T1, Keap1-Nrf2 (Homo sapiens, UniProt Q14145)
# T1 construct: purchased Sino Biological 11981-H20B
# Experiment: Keap1-Nrf2 Binding Inhibitory Activity Assay (fluorescence polarization, Keap1_FL + FITC-Nrf2 peptide)
# Settings: Keap1-FL, 60 min room temperature
# Experimental: Example 2.1 Keap1-Nrf2 Binding Inhibitory Activity Assay
# • PerkinElmer EnVision 2105 Multilabel Reader • PerkinElmer FITC FP dual emission Label 2100-8060 • LABCYTE Echo 650 • Corning 384-well microplate #4514 • Keap1_FL, Sino Biological, catalog 11981-H20B • FITC-Nrf2 peptide, GL Biochem, Lot No: p210427-XQ892761
# • a) Reference titration • 1. Keap1-Nrf2 Assay Buffer was prepared: 10 mM Tris-HCl pH 7.4, 150 mM NaCl, 50 mM EDTA, 0.05% Tween20, 0.1 mg/ml BSA (freshly add before use). • 2. 2.04× Tracer working solution was prepared: 2.04 nM FITC-Nrf2 peptide in Assay Buffer from 1 μM DMSO stock. • 3. 2× Protein working solution was prepared: 25 nM Keap1-FL in Assay Buffer. • 4. 100× compound working solutions with DMSO were prepared. Starting from 100 μM, serial 3-fold dilutions (10 points) were made by the Echo on the 384-well LDV microplate, then 200 nL of compounds, in duplicated wells, were transferred to a Corning 4514 plate. • 5. 9.8 μL per well of the Tracer working solution was added into the Corning 4514 plate. • 6. 10 μL per well of the Protein working solution was added into the Corning 4514 plate, except for the first two columns where Dilution Buffer were added to serve as “positive control”. • 7. The plate was incubated at room temperature for 60 min. • b) Read data on an EnVision with the following setting: Excitation Light (%): 84; Measurement Height: 9.4; G-Factor: 1; Detector Gain 1:220; Detector Gain 2: 220; Flash Number: 50.
# All the Test Compounds were considered as having Keap1-Nrf2 binding inhibitory activity.
row,SMILES,IC50
1,"Cc1ccc2cc1CN(C)C(=O)c1ccc(cc1)COCCCn1nnc3c(C)c(ccc31)C2CC(=O)O (single isomer, unassigned) [Compound 16, 2-(1^4,3^4,5-trimethyl-6-oxo-1^1H-9-oxa-5-aza-1(5,1)-benzo[d][1,2,3]triazola-3(1,3), 7(1,4)-dibenzenacyclododecaphane-2-yl)acetic acid]",1000 to 10000 nM
2,"Cc1c2ccc3c1nnn3CCOCCOC1CCN(CC1)C(=O)c1ccc3ccc(cc3c1)C2CC(=O)O (single isomer, unassigned) [Compound 18]",1000 to 10000 nM
3,"Cc1c2ccc3c1nnn3CCOCCOC1CCN(CC1)C(=O)c1ccc3ccc(cc3c1)C2CC(=O)O (single isomer, unassigned) [Compound 19]",1000 to 10000 nM
4,"Cc1c2ccc3c1nnn3CCCOCc1ccc(cc1)C(=O)N(C)Cc1cncc(c1)C2CC(=O)O (single isomer, unassigned) [Compound 20]",1000 to 10000 nM
5,"Cc1c2ccc3c1nnn3CCCOCc1ccc(cc1)C(=O)N(C)Cc1cncc(c1)C2CC(=O)O (single isomer, unassigned) [Compound 23]",1000 to 10000 nM
6,"Cc1c2ccc3c1nnn3CCCOCc1ccc(cc1)C(=O)N(C)Cc1cccc(n1)C2CC(=O)O (single isomer, unassigned) [Compound 24]",100 to 1000 nM
7,"Cc1c2ccc3c1nnn3CCCOCc1ccc(cc1)C(=O)N(C)Cc1cccc(n1)C2CC(=O)O (single isomer, unassigned) [Compound 25]",1000 to 10000 nM
8,"Cc1c2ccc3c1nnn3CCCOCc1ccc(cc1)C(=O)N(C)Cc1cc(ccn1)C2CC(=O)O (single isomer, unassigned) [Compound 26]",100 to 1000 nM
9,"Cc1c2ccc3c1nnn3CCCOCc1ccc(cc1)C(=O)N(C)Cc1cc(ccn1)C2CC(=O)O (single isomer, unassigned) [Compound 27]",1000 to 10000 nM
10,"O=C(O)CC1c2ccc3c(c2)CN(CC3)C(=O)N2CCC(CCCCn3nnc4cc1cnc43)CC2 (single isomer, unassigned) [Compound 51]",100 to 1000 nM
11,"Cc1c2ccc3c1nnn3CCOCCOC1CCN(CC1)C(=O)c1ccc3c(c1)CN(CC3)C2CC(=O)O (centres unmarked) [Compound 9, 2-(carboxymethyl)-1^4-methyl-4-oxo-3^1,3^2,3^3,3^4-tetrahydro-1^1H-6,9-dioxa-3(2,7)-isoquinolin-2-iuma-1(5,1)-benzo[d][1,2,3]triazola-5(1,4)-piperidinacycloundecaphan-3^2-ium chloride]",1000 to 10000 nM
12,Cc1c2ccc3c1nnn3CCCOCc1ccc(cc1)C(=O)N(C)Cc1ccnc(c1)C2CC(=O)O (centres unmarked) [Compound 21],100 to 1000 nM
13,Cc1c2ccc3c1nnn3CCCOCc1ccc(cc1)S(=O)(=O)N(C)Cc1cccc(c1)C2CC(=O)O (centres unmarked) [Compound 22],1000 to 10000 nM
14,Cc1c2ccc3c1nnn3CCCCCC1CCN(CC1)C(=O)N(C)Cc1cccc(c1)C2CC(=O)O (centres unmarked) [Compound 31],100 to 1000 nM
15,Cc1c2ccc3c1nnn3CCCCC1CCN(CC1)C(=O)N(C)Cc1cccc(c1)C2CC(=O)O (centres unmarked) [Compound 32],1000 to 10000 nM
16,Cc1c2ccc3c1nnn3CCCCC1CCC(CC1)C(=O)N(C)Cc1cccc(c1)C2CC(=O)O (centres unmarked) [Compound 36],100 to 1000 nM
17,Cc1c2ccc3c1nnn3CCCCCCCCNC(=O)N1CCc3ccc(cc3C1)C2CC(=O)O (centres unmarked) [Compound 38],≤ 100 nM
18,Cc1c2ccc3c1nnn3CCCCCCCCCC(=O)N1CCc3ccc(cc3C1)C2CC(=O)O (centres unmarked) [Compound 41],≤ 100 nM
19,Cc1c2ccc3c1nnn3CCCCCCC(=O)N1CCc3ccc(cc3C1)C2CC(=O)O (centres unmarked) [Compound 42],≤ 100 nM
20,Cc1c2ccc3c1nnn3CCCCCNC(=O)N1CCc3ccc(cc3C1)C2CC(=O)O (centres unmarked) [Compound 43],1000 to 10000 nM
21,"Cc1c2ccc3c1nnn3CCCCCC1CCN(CC1)C(=O)N(C)CCc1ccc(cc1)C2CC(=O)O (centres unmarked) [Compound 44, 2-(14,6-dimethyl-7-oxo-11H-6-aza-1(5,1)-benzo[d][1,2,3]triazola-8(1,4)-piperidina-3(1,4)-benzenacyclotridecaphane-2-yl)acetic acid]",1000 to 10000 nM
22,Cc1c2ccc3c1nnn3CCCCC(=O)N1CCc3ccc(cc3C1)C2CC(=O)O (centres unmarked) [Compound 46],100 to 1000 nM

# More lines, now with the values ahead:
row,IC50,SMILES
1,≤ 100 nM,"Cc1c2ccc3c1nnn3CCCCCC1CCN(CC1)C(=O)N1CCc3ccc(cc3C1)C2CC(=O)O (single isomer, unassigned) [Compound 28]"
2,≤ 100 nM,"Cc1c2ccc3c1nnn3CCCCCC1CCN(CC1)C(=O)N1CCc3ccc(cc3C1)C2CC(=O)O (single isomer, unassigned) [Compound 29]"
3,≤ 100 nM,"Cc1c2ccc3c1nnn3CCCCC1CCC(CC1)C(=O)N1CCc3ccc(cc3C1)C2CC(=O)O (single isomer, unassigned) [Compound 47]"
4,≤ 100 nM,"Cc1c2ccc3c1nnn3CCCCC1CCC(CC1)C(=O)N1CCc3ccc(cc3C1)C2CC(=O)O (single isomer, unassigned) [Compound 48]"
5,≤ 100 nM,"Cc1c2ccc3c1nnn3CCCCCC1CCC(CC1)C(=O)N1CCc3ccc(cc3C1)C2CC(=O)O (single isomer, unassigned) [Compound 49]"
6,≤ 100 nM,"Cc1c2ccc3c1nnn3CCCCCC1CCC(CC1)C(=O)N1CCc3ccc(cc3C1)C2CC(=O)O (single isomer, unassigned) [Compound 50]"
7,≤ 100 nM,"O=C(O)CC1c2ccc3c(c2)CN(CC3)C(=O)N2CCC(CCCCn3nnc4cc1cnc43)CC2 (single isomer, unassigned) [Compound 52]"
8,≤ 100 nM,"Cc1c2ccc3c1nnn3CCCCOC1CCN(CC1)S(=O)(=O)N1CCc3ccc(cc3C1)C2CC(=O)O (centres unmarked) [Compound 6, 2-(1^4-methyl-4,4-dioxido-3^1,3^2,3^3,3^4-tetrahydro-1^1H-6-oxa-4-thia-3(7,2)-isoquinolina-1(5,1)-benzo[d][1,2,3]triazola-5(1,4)-piperidinacyclodecaphane-2-yl)acetic acid]"
9,≤ 100 nM,"Cc1c2ccc3c1nnn3CCCCOc1ccc(cc1)S(=O)(=O)N1CCc3ccc(cc3C1)C2CC(=O)O (centres unmarked) [Compound 13, 2-(1^4-methyl-4,4-dioxido-3^1,3^2,3^3,3^4-tetrahydro-1^1H-6-oxa-4-thia-3(7,2)-isoquinolina-1(5,1)-benzo[d][1,2,3]triazola-5(1,4)-benzenacyclodecaphane-2-yl)acetic acid]"
10,≤ 100 nM,"Cc1c2ccc3c1nnn3CCOCCOC1CCN(CC1)S(=O)(=O)N1CCc3ccc(cc3C1)C2CC(=O)O (centres unmarked) [Compound 15, 2-(1^4-methyl-4,4-dioxido-3^1,3^2,3^3,3^4-tetrahydro-1^1H-6,9-dioxa-4-thia-3(7,2)-isoquinolina-1(5,1)-benzo[d][1,2,3]triazola-5(1,4)-piperidinacycloundecaphane-2-yl)acetic acid]"
